Reference: patent publication US20260250290A1 (BRISTOL-MYERS SQUIBB COMPANY, priority 2023, published 2026)

molecular target: T1, full length SGK1 (Homo sapiens, UniProt O00141); assay: SGK1 inhibition Assay A (Caliper LabChip electrophoretic separation of fluorescent peptide substrate and phosphorylated product); assay type: biochemical; conditions: Assay A; 20 μM ATP, 40 min incubation; read-out: SGK1 IC50
T1 construct: 125 μM full length SGK1 (Life Technologies Part #PR7358A); purchased Life Technologies PR7358A
T1 sequence (O00141 1-431): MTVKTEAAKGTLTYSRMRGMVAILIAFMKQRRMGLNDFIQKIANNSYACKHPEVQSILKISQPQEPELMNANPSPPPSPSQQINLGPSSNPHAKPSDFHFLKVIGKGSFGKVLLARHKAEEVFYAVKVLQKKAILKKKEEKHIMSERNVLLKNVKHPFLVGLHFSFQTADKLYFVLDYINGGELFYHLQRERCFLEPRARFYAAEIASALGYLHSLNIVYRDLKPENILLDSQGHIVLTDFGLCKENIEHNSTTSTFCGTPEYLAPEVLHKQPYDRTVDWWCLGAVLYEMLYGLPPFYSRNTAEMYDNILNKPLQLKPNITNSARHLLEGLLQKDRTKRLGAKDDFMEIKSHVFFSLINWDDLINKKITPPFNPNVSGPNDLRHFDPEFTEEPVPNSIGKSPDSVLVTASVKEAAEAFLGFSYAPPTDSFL

Structure (SMILES) | IC50 [nM]
CC(C)Cn1cc(-c2cc(N3CCC[C@@H](NC(=O)c4ccc(C(F)F)s4)C3)c3c(N)ncnn23)ccc1=O [Example 510, (R)-N-(1-(4-amino-7-(1-isobutyl-6-oxo-1,6-dihydropyridin-3-yl)pyrrolo[2,1-f][1,2,4]triazin-5-yl)piperidin-3-yl)-5-(difluoromethyl)thiophene-2-carboxamide] | 44
Cc1nc(C)c(C(=O)N[C@@H]2CCCN(c3cc(-c4cncnc4)n4ncnc(N)c34)C2)s1 [Example 511, (R)-N-(1-(4-amino-7-(pyrimidin-5-yl)pyrrolo[2,1-f][1,2,4]triazin-5-yl)piperidin-3-yl)-2,4-dimethylthiazole-5-carboxamide] | 450
Cc1nc(C)c(C(=O)N[C@@H]2CCCN(c3cc(-c4ccc(C#N)nc4)n4ncnc(N)c34)C2)s1 [Example 512, (R)-N-(1-(4-amino-7-(6-cyanopyridin-3-yl)pyrrolo[2,1-f][1,2,4]triazin-5-yl)piperidin-3-yl)-2.4-dimethylthiazole-5-carboxamide] | 66
Cc1nc(C)c(C(=O)N[C@@H]2CCCN(c3cc(-c4ccnc(C#N)c4)n4ncnc(N)c34)C2)s1 [Example 513, (R)-N-(1-(4-amino-7-(2-cyanopyridin-4-yl)pyrrolo[2,1-f][1,2,4]triazin-5-yl)piperidin-3-yl)-2.4-dimethylthiazole-5-carboxamide] | 32
Cc1nc(C)c(C(=O)N[C@@H]2CCCN(c3cc(-c4ccc(=O)n(CC(C)C)c4)n4ncnc(N)c34)C2)s1 [Example 514, (R)-N-(1-(4-amino-7-(1-isobutyl-6-oxo-1,6-dihydropyridin-3-yl)pyrrolo[2,1-f][1,2,4]triazin-5-yl)piperidin-3-yl)-2,4-dimethylthiazole-5-carboxamide] | 131
N#Cc1ccc(-c2cc(N3CCC[C@@H](NC(=O)c4cc5cc(F)ccc5[nH]4)C3)c3c(N)ncnn23)cn1 [Example 515, (R)-N-(1-(4-amino-7-(6-cyanopyridin-3-yl)pyrrolo[2,1-f][1,2,4]triazin-5-yl)piperidin-3-yl)-5-fluoro-1H-indole-2-carboxamide] | 130
Nc1ncnn2c(-c3cncnc3)cc(N3CCC[C@@H](NC(=O)c4cc5cc(F)ccc5[nH]4)C3)c12 [Example 516, (R)-N-(1-(4-amino-7-(pyrimidin-5-yl)pyrrolo[2,1-f][1,2,4]triazin-5-yl)piperidin-3-yl)-5-fluoro-1H-indole-2-carboxamide] | 164
CC(=O)N1CC=C(c2cc(N3CCC[C@@H](NC(=O)c4cc5cc(F)ccc5[nH]4)C3)c3c(N)ncnn23)C1 [Example 517, (R)-N-(1-(7-(1-acetyl-2,5-dihydro-1H-pyrrol-3-yl)-4-aminopyrrolo[2,1-f][1,2,4]triazin-5-yl)piperidin-3-yl)-5-fluoro-1H-indole-2-carboxamide] | 28
COC(=O)N1CC=C(c2cc(N3CCC[C@@H](NC(=O)c4cc5cc(F)ccc5[nH]4)C3)c3c(N)ncnn23)C1 [Example 518, Methyl (R)-3-(4-amino-5-(3-(5-fluoro-1H-indole-2-carboxamido)piperidin-1-yl)pyrrolo[2,1-f][1,2,4]triazin-7-yl)-2,5-dihydro-1H-pyrrole-1-carboxylate] | 138
Cc1cc(-c2cc(N3CCC[C@@H](NC(=O)c4ccc(C(F)F)s4)C3)c3c(N)ncnn23)cnc1C#N [Example 522] | 17
N#Cc1ncc(-c2cc(N3CCC[C@@H](NC(=O)c4ccc(C(F)F)s4)C3)c3c(N)ncnn23)cc1F [Example 523, (R)-N-(1-(4-amino-7-(6-cyano-5-fluoropyridin-3-yl)pyrrolo[2,1-f][1,2,4]triazin-5-yl)piperidin-3-yl)-5-(difluoromethyl)thiophene-2-carboxamide] | 118
N#Cc1ncc(-c2cc(N3CCC[C@@H](NC(=O)c4ccc(C(F)F)s4)C3)c3c(N)ncnn23)cc1C(F)(F)F [Example 524, (R)-N-(1-(4-amino-7-(6-cyano-5-(trifluoromethyl)pyridin-3-yl)pyrrolo[2,1-f][1,2,4]triazin-5-yl)piperidin-3-yl)-5-(difluoromethyl)thiophene-2-carboxamide] | 362
NC(=O)c1ncc(-c2cc(N3CCC[C@@H](NC(=O)c4ccc(C(F)F)s4)C3)c3c(N)ncnn23)cc1C(F)(F)F [Example 525] | 26
Nc1ncnn2c(-c3ccc(=O)[nH]c3)cc(N3CCC[C@@H](NC(=O)c4ccc(C(F)F)s4)C3)c12 [Example 526, (R)-N-(1-(4-amino-7-(6-oxo-1,6-dihydropyridin-3-yl)pyrrolo[2,1-f][1,2,4]triazin-5-yl)piperidin-3-yl)-5-(difluoromethyl)thiophene-2-carboxamide] | 190
Nc1ncnn2c(-c3ccc(=O)n(C(F)F)c3)cc(N3CCC[C@@H](NC(=O)c4ccc(C(F)F)s4)C3)c12 [Example 527, (R)-N-(1-(4-amino-7-(1-(difluoromethyl)-6-oxo-1,6-dihydropyridin-3-yl)pyrrolo[2,1-f][1,2,4]triazin-5-yl)piperidin-3-yl)-5-(difluoromethyl)thiophene-2-carboxamide] | 148
Nc1ncnn2c(-c3ccc(OC(F)F)nc3)cc(N3CCC[C@@H](NC(=O)c4ccc(C(F)F)s4)C3)c12 [Example 528, (R)-N-(1-(4-amino-7-(6-(difluoromethoxy)pyridin-3-yl)pyrrolo[2,1-f][1,2,4]triazin-5-yl)piperidin-3-yl)-5-(difluoromethyl)thiophene-2-carboxamide] | 139
N#Cc1ncc(-c2cc(N3CCC[C@@H](NC(=O)c4ccc(Cl)s4)C3)c3c(N)ncnn23)cc1F [Example 530, (R)-N-(1-(4-amino-7-(6-cyano-5-fluoropyridin-3-yl)pyrrolo[2,1-f][1,2,4]triazin-5-yl)piperidin-3-yl)-5-chlorothiophene-2-carboxamide] | 11
N#Cc1ncc(-c2cc(N3CCC[C@@H](NC(=O)c4ccc(Cl)s4)C3)c3c(N)ncnn23)cc1C(F)(F)F [Example 531, (R)-N-(1-(4-amino-7-(6-cyano-5-(trifluoromethyl)pyridin-3-yl)pyrrolo[2,1-f][1,2,4]triazin-5-yl)piperidin-3-yl)-5-chlorothiophene-2-carboxamide] | 18
CCn1cc(-c2cc(N3CCC[C@@H](NC(=O)c4ccc(Cl)s4)C3)c3c(N)ncnn23)ccc1=O [Example 532, (R)-N-(1-(4-amino-7-(1-ethyl-6-oxo-1,6-dihydropyridin-3-yl)pyrrolo[2,1-f][1,2,4]triazin-5-yl)piperidin-3-yl)-5-chlorothiophene-2-carboxamide] | 6
CC(C)(O)c1ncc(-c2cc(N3CCC[C@@H](NC(=O)c4ccc(Cl)s4)C3)c3c(N)ncnn23)cn1 [Example 533, (R)-N-(1-(4-amino-7-(2-(2-hydroxypropan-2-yl)pyrimidin-5-yl)pyrrolo[2,1-f][1,2,4]triazin-5-yl)piperidin-3-yl)-5-chlorothiophene-2-carboxamide] | 728
Nc1ncnn2c(-c3ccc(OCC(F)F)nc3)cc(N3CCC[C@@H](NC(=O)c4ccc(Cl)s4)C3)c12 [Example 534, (R)-N-(1-(4-amino-7-(6-(2,2-difluoroethoxy)pyridin-3-yl)pyrrolo[2,1-f][1,2,4]triazin-5-yl)piperidin-3-yl)-5-chlorothiophene-2-carboxamide] | 8
Nc1ncnn2c(-c3cnccn3)cc(N3CCC[C@@H](NC(=O)c4ccc(Cl)s4)C3)c12 [Example 535, (R)-N-(1-(4-amino-7-(pyrazin-2-yl)pyrrolo[2,1-f][1,2,4]triazin-5-yl)piperidin-3-yl)-5-chlorothiophene-2-carboxamide] | 58
Nc1ncnn2c(-c3ccc(=O)[nH]c3)cc(N3CCC[C@@H](NC(=O)c4ccc(Cl)s4)C3)c12 [Example 536, (R)-N-(1-(4-amino-7-(6-oxo-1,6-dihydropyridin-3-yl)pyrrolo[2,1-f][1,2,4]triazin-5-yl)piperidin-3-yl)-5-chlorothiophene-2-carboxamide] | 7
Nc1ncnn2c(-c3ccc(=O)n(C(F)F)c3)cc(N3CCC[C@@H](NC(=O)c4ccc(Cl)s4)C3)c12 [Example 537, (R)-N-(1-(4-amino-7-(1-(difluoromethyl)-6-oxo-1,6-dihydropyridin-3-yl)pyrrolo[2,1-f][1,2,4]triazin-5-yl)piperidin-3-yl)-5-chlorothiophene-2-carboxamide] | 2
Nc1ncnn2c(-c3ccc(OC(F)F)nc3)cc(N3CCC[C@@H](NC(=O)c4ccc(Cl)s4)C3)c12 [Example 538, (R)-N-(1-(4-amino-7-(6-(difluoromethoxy)pyridin-3-yl)pyrrolo[2,1-f][1,2,4]triazin-5-yl)piperidin-3-yl)-5-chlorothiophene-2-carboxamide] | 20
Nc1ncnn2c(-c3ccc(C=O)cc3)cc(N3CCC[C@@H](NC(=O)c4ccc(Cl)s4)C3)c12 [Example 539] | 0.4
CC(=O)N1CC=C(c2cc(N3CCC[C@@H](NC(=O)c4ccc(-c5ccnc(C(F)F)c5)s4)C3)c3c(N)ncnn23)C1 [Example 541, (R)—N-(1-(7-(1-acetyl-2,5-dihydro-1H-pyrrol-3-yl)-4-aminopyrrolo[2,1-f][1,2,4]triazin-5-yl)piperidin-3-yl)-5-(2-(difluoromethyl)pyridin-4-yl)thiophene-2-carboxamide] | 5
Nc1ncnn2c(-c3ccnc(C(F)F)c3)cc(N3CCC[C@@H](NC(=O)c4ccc(-c5ccnc(C(F)F)c5)s4)C3)c12 [Example 542, (R)-N-(1-(4-amino-7-(2-(difluoromethyl)pyridin-4-yl)pyrrolo[2,1-f][1,2,4]triazin-5-yl)piperidin-3-yl)-5-(2-(difluoromethyl)pyridin-4-yl)thiophene-2-carboxamide] | 4
